# Measurements reported in patent publication US20130046098A1, “KINASE INHIBITORS” (THE UNIVERSITY OF MANCHESTER, priority 2009, published 2013).
# “Also recorded” adds a separate entry of the source.
# Tests used:
# [1] = system: GEF16 transformed NIH3T3 cells; assay: Flow cytometry of DNA content (cell cycle, sub G1); format: cell-based, mouse
# Procedure: NIH3T3 cells with or without drug treatments (with Y27632 or the compounds of the invention) were harvested at various time points and cell counts carried out to confirm that 1×10^6 cells were present for each cytometric analysis. Cells were washed with PBS, fixed with 70% ice-cold ethanol, pelleted and DNA stained by incubating the cells with propidium iodide ([…]) (Sigma-Aldrich, Poole, UK) at 4° C. for 45 min. Cells were then washed twice with ice-cold PBS and resuspended in 400 μl of PBS. The DNA content during different phases of the cell cycle was then determined by flow cytometry (BD Biosciences, Oxford, UK). Each profile shown was representative of three separate experiments.
# ROCK2 = ROCK2 (Homo sapiens, UniProt O75116); assay: SelectScreen additional single point analysis; conditions: 10 μM
# ROCK = assay: SelectScreen 40 kinase panel; format: biochemical, human; conditions: 10 μM, Km ATP
# Text: The SelectScreen™ kinase inhibitor assay service was used (Invitrogen Ltd., Paisley, UK) to investigate the ability of the compounds of the invention to inhibit a large number of different kinases. This commercially provided service allows assessment of the ability of a compound (or compounds) of interest to inhibit a broad panel of human kinases. Further details regarding this service are available on the Invitrogen website at:
# In the present study YA1 (a compound in accordance with formula (V)) was investigated for its ability to inhibit the activity of the 40 kinases shown in panel B of FIG. 2. The compounds of the invention were diluted in DMSO at a concentration of 10 mM and single-point kinase inhibitory activities were measured at 10 μM and Km ATP concentration.
# HGK (MAP4K4) = HGK (MAP4K4) (Homo sapiens, UniProt O95819); assay: SelectScreen in vitro kinase profiling, single point
# p38 alpha (MAPK14) = p38 alpha (MAPK14) (Homo sapiens, UniProt Q16539); assay: as above
# recombinant ROCK = assay: In vitro ROCK activity assay (Cyclex Rho-kinase immunoassay); format: biochemical; conditions: FIG. 2A bar chart
# Procedure: A specific assay was used to evaluate the ability of the compounds of the invention to inhibit ROCK. Rho-kinase activity was determined using an immunoassay as recommended by the manufacturer (Cyclex Co., Ltd., Nagano, Japan). Briefly, […] samples containing 10 mUnit (1 Unit incorporates 1 nmol of phosphate into GST-MBS/MYPT1 per minute at 30° C.) of recombinant ROCK with or without the compounds of the invention were aliquoted into a 96-well plate (100 μl/well), pre-coated with threonine Rho-kinase phosphorylation substrate. After 30 min incubation at 30° C., the plate was washed three times with PBS then incubated with 100 μl/well of HRP conjugated anti-phospho-specific antibody for 1 h at room temperature. The amount of phosphorylated substrate was determined by adding 100 μl/well of substrate reagent for 10 min and the reaction was terminated by adding 100 μl/well of the stop solution. The absorbance was measured on a 96-well plate reader at 450 nm (Dynex Technologies, West Sussex, UK). Each data point was performed in triplicate and the assay was repeated twice.
# [2] = system: single transformed colony derived GEF16 cells co-cultured with non-transformed vector cells; assay: Co-culture of single colony derived GEF16 cells with non-transformed vector cells; format: cell-based, mouse; conditions: 10 μM, 10 days
# Procedure: FIG. 5 illustrates that the growth suppressive effects of YA1 on single transformed colony derived GEF16 NIH3T3 cells and polyclonal Ras transformed NIH3T3 cells are more pronounced when these are co-cultured with non-transformed cells. In FIG. 5A single transformed colonies were picked from 10 day cultures of GEF16 polyclonal NIH3T3 cells and expanded. These cells were then seeded at 2.0×10^5 cells per 30 mm dish and treated with 10 μM of YA1 or DMSO control either immediately or following 10 days in culture. Duplicate wells were harvested for flow cytometry. In FIG. 5B a total of 2×10^5 cells per well were plated consisting of increasing numbers of non-transformed vector cells co-cultured with decreasing numbers of single transformed colony derived GEF16 cells. These were treated with 10 μM of either YA1 or DMSO for 10 days. In producing the results shown in FIG. 5C the same co-culture experiment described in connection with FIG. 5B was carried out substituting polyclonal Ras transformed NIH3T3 cells for GEF16 transformed cells.
# Non-transformed vector cells mixed with decreasing numbers of cells expanded from single GEF16 transformed colonies were treated with the compound of the invention YA1, or with DMSO, and incubated for 10 days.
# [3] = system: polyclonal GEF16 transfected NIH3T3 cells; assay: Transformed colony forming assay (Toluidine blue)
# Procedure: Following this incubation period the compound was then removed from the culture media and cells maintained in normal growth media for a further 10 days before the photographs shown were taken.
# In FIG. 4A polyclonal GEF16 transfected cells were seeded at 2.0×10^5 cells per 30 mm dish and incubated over night. […] After a further 10 days culture in the absence of inhibitors the cells were stained with Toluidine blue and photographed to produce the images shown. […] These were incubated for 3 or 6 days then stained with Toluidine blue before being photographed.
# Medium (containing the compound of interest—either Y27632 or the selected compounds of the invention—or DMSO control) was changed every 2 days. Formation of foci was analysed by Toluidine blue (Sigma-Aldrich, Poole, UK) staining after 10 days growth post confluence. […] Each assay was carried out in triplicate and the results shown are representative of at least three separate experiments.
# [4] = system: GEF16 transformed donor cells and non-transformed NIH3T3-vector recipient cells; assay: Flow cytometric LY/PKH67 assay of gap junction intercellular communication (GJIC); format: cell-based, mouse; conditions: 10 μM, p<0.05, FIG. 6B
# Procedure: A novel flow cytometric assay was developed to measure the extent of gap junction intercellular communication (GJIC) using two differentially stained cell populations. Non-transformed recipient NIH3T3-vector cells were stained with PKH67 (Excitation 490, Emission 502, Sigma-Aldrich, Poole, UK) and GEF16 transformed donor cells were stained with Lucifer yellow (LY) (Excitation 427 nm, Emission 517 nm, Invitrogen Ltd., Paisley, UK) as follows.
# A 1 ml suspension of 1×10^7 recipient cells in serum-free DMEM was mixed with an equal volume of 4 μM PKH67 solution and incubated for 5 min at room temperature. The reaction was terminated by adding 2 ml serum and incubating for 1 min. Cells were then washed three times with culture medium, and seeded at 1.5×10^6 cells/T-25 flask. […]
# LY labelled donor cells were then harvested and 1×10^5 were added to the T25 flask containing the PKH67 labelled recipient cells plus 10 μM YA1 or DMSO control. After incubating for various time intervals, the co-cultured donor and recipient cells were collected and analysed using a BD FACS Aria™ (BD Biosciences, Oxford, UK). A 405 nm laser was used for LY excitation and emission was measured using a 515 nm to 545 nm band pass filter. GJIC between co-cultured donor and recipient cells was quantified as the percentage of LY and PKH67 double labelled cells.
# [5] = additional single point analysis, 10 μM
# Sequence of p38 alpha (MAPK14) (Q16539 whole entry): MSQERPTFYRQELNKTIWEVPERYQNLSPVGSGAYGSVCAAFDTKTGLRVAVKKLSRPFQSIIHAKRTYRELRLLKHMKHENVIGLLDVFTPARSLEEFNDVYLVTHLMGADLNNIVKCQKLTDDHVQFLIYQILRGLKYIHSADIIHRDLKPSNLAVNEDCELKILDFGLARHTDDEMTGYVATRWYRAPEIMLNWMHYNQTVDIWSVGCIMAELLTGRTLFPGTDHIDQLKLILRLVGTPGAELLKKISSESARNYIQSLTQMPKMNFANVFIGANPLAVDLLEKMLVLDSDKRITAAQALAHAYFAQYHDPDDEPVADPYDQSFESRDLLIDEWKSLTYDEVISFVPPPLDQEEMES
# Sequence of HGK (MAP4K4) (O95819 whole entry): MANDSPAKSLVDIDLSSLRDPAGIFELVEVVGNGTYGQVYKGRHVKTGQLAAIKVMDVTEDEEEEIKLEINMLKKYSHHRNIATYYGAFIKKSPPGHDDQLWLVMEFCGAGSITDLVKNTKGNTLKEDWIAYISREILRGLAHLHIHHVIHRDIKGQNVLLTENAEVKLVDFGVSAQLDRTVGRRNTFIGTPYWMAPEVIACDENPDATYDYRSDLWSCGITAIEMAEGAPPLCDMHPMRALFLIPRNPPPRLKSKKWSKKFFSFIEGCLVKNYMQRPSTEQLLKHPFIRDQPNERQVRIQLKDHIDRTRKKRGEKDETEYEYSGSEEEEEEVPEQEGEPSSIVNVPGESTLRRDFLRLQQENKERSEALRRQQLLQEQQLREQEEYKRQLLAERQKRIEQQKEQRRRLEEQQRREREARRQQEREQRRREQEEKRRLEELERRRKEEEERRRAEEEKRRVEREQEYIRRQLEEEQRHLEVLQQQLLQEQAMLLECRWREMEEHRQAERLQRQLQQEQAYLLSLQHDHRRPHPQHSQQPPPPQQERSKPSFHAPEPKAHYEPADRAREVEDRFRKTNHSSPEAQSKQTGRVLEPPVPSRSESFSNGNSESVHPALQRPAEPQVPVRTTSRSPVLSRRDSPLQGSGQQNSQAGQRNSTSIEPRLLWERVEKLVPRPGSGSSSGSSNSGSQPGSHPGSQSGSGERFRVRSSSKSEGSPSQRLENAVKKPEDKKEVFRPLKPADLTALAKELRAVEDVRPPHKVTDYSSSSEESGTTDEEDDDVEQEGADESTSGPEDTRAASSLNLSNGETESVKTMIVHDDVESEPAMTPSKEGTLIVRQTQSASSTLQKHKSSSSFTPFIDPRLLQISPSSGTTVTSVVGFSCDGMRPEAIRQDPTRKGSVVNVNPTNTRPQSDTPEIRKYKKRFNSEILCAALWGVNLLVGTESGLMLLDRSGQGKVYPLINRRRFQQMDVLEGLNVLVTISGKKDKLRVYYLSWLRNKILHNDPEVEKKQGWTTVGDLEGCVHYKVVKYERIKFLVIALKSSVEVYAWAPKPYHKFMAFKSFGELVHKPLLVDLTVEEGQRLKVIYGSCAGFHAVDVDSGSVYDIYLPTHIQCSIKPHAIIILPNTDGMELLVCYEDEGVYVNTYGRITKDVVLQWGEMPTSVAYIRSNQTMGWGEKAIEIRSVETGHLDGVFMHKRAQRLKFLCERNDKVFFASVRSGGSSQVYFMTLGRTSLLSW
# Sequence of ROCK2 (O75116 whole entry): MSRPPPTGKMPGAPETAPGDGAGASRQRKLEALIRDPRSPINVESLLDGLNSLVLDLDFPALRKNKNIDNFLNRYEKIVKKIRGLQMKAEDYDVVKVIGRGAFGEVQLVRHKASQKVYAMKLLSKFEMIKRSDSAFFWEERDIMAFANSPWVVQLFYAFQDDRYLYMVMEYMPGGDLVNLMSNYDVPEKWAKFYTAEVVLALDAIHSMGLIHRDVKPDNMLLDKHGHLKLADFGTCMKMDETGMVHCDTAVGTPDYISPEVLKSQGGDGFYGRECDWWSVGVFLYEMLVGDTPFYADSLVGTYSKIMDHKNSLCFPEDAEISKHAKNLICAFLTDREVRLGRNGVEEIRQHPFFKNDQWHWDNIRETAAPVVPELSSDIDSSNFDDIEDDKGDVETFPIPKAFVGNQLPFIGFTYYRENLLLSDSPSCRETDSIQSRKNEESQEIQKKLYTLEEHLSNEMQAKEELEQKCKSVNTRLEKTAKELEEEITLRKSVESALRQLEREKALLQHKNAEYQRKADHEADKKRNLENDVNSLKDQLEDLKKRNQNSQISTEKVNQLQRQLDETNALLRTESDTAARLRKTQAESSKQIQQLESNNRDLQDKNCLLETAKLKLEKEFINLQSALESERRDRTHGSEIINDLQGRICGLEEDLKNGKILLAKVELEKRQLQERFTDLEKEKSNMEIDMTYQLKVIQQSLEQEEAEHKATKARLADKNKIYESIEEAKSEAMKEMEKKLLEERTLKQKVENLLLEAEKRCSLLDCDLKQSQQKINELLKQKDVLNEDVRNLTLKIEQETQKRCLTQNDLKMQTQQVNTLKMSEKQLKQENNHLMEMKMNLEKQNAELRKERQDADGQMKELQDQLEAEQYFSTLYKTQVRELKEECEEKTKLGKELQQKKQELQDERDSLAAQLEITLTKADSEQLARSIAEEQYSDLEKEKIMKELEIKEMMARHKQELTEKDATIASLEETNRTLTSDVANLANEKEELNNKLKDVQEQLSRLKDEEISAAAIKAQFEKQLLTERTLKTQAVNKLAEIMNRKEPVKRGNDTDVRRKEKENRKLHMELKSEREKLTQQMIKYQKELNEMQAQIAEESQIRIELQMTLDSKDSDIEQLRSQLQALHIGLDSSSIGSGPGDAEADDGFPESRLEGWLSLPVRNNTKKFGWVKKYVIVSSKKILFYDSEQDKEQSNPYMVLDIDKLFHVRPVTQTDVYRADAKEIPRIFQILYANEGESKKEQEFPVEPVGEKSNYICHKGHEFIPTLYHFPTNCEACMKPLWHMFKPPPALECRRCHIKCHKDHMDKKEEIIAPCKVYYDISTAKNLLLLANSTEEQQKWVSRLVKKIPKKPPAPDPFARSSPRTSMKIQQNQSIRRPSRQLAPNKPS
compound,measurement,setting,value
"CC(C)(C)OC(=O)NCc1ccc(C(=O)Nc2ccncc2)cc1 [YA1, 4-(Pyridin-4-ylcarbamoyl)benzylcarbamic acid tert-butyl ester]",cell cycle / apoptotic sub G1 population,"[1]; polyclonal GEF16 cells, 10 μM, FIG. 3C",no evidence of alterations in cell cycle or the accumulation of an apoptotic sub G1 population
same,cell cycle / apoptotic sub G1 population,"[1]; single colony derived GEF16 cells, treated pre or post confluence",no effect on the cell cycle and no apoptotic sub G1 population is seen
same,activity against ROCK2,ROCK2,less activity against ROCKs than YA2
same,ROCK inhibitory activity,ROCK,~40%
same,activity against HGK,HGK (MAP4K4); [5],"significant activity against p38, HGK and Aurora A"
same,inhibition at 10 µM,HGK (MAP4K4); read-out: inhibitory activity against HGK (MAP4K4),63%
same,activity against p38,p38 alpha (MAPK14); [5],"significant activity against p38, HGK and Aurora A"
same,inhibition at 10 µM,p38 alpha (MAPK14); read-out: inhibitory activity against p38 alpha (MAPK14),72%
same,ROCK inhibitory activity compared to Y27632,recombinant ROCK,lower ROCK inhibitory activity; also recorded: significantly less activity against ROCK than did their structural analogue Y27632
same,final saturation density / growth of transformed cells in co-culture with non-transformed cells,[2],marked reduction in the final saturation density of the cultures; also recorded: more effective at suppressing the growth of transformed cells when these are in contact with non-transformed cells; also recorded: clearly restored when these are co-cultured with non-transformed NIH3T3 cells
same,number of transformed foci after transient exposure and withdrawal,"[3]; 10 μM for 2, 4, 6, 8, 10 days, then 10 day chase in normal media",progressive decrease in the number of transformed foci associated with increased time of exposure
same,"transformed focus formation after treatment, re-seeding and chase","[3]; 10 μM for 2-10 days, re-seeded at 2×10^5, 10 day chase without inhibitor",able to suppress transformed focus formation
same,formation of GEF16 transformed colonies,"[3]; 10 μM, 10 days, post confluent cultures",able to block transformed GEF16 colony formation to an extent comparable to the inhibition achieved using Y27632; also recorded: greatest ability to inhibit GEF16 transformed colonies
same,effect on pre-formed transformed colonies,"[3]; colonies formed for 10 days, then 10 μM or 20 μM for 3 and 6 days",marked reduction in their numbers
same,number of double LY/PKH67 labelled cells compared to DMSO control,[4],approximately 3 times
